Results published in US20130089601A1, “METHOD FOR TREATING ATHEROSCLEROSIS” (KAOHSIUNG MEDICAL UNIVERSITY, priority 2009, published 2013).

Assays:
endogenous microRNA-195 = test: Endogenous microRNA-195 in VSMC by quantitative real-time PCR, normalized to U44; type: cell-based, human; details: ox-LDL and simvastatin 1 nM for 24 hours
Description: Quantitative real-time PCR was performed in an ABI PRIZM 7500 sequence detection system in triplicates. The typical amplification program was carried out in a 20 μl reaction with a primer at a final concentration of 300 nM and probes of 200 nM. Serial dilutions of the control cDNA for generating standard curves ran in duplicate. Real-time PCR results were analyzed using ABI PRISM 7500 SDS software. Relative differences of microRNAs were quantified using the […] method. For graphical presentation, the 2^−ΔΔCt transformation was used according to the ABI user bulletin version #2. Expression values were depicted relatively to the value at baseline which was the earliest time point present in all the experiments.

VSMC cells = test: Chemotactic migration of VSMC (Transwell); type: cell-based, human; details: 100 nM for 24 hours, ox-LDL 40 μg/ml
Description: Chemotactic migration is another characteristic of atherosclerosis and can be used as another line of evidence of atherosclerotic change for the cultured VSMC cells. This experiment was assayed by using a microchemotactic chamber and polycarbonate filters with pores of […] in diameter (Transwell, Millipore). After incubated with microRNA-195 (Pre-miR miRNA, hsa-miR-195 (product ID PM10827), Ambion Inc.) (100 nM) or an inhibitor (100 nM) for 24 hours, the VSMC cells were trypsinized and suspended with a serum free medium. A volume (300 μl) of a 1×10^4 cell suspension was placed in the upper chamber, the medium containing ox-LDL (40 μg/ml, each) was placed in the lower and upper chamber. The cell suspension was incubated at a temperature of 37° C. under 5% CO2 in air for 24 hours. After incubation, the VSMC cells on the upper side of the filter were scraped off, and the cells that had directly migrated to the lower side of the filter were trypsinized. The cells were fixed with methanol and stained with a Giemsa solution (Merck). Quantification of chemotactic migration was performed using the hemocytometer.

Molecule | endogenous microRNA-195 decrease versus ox-LDL-stimulated cells (endogenous microRNA-195) [fold] | chemotactic migration, percentage of migrated cells compared to control medium cells (VSMC cells) [%]
CCC(C)(C)C(=O)O[C@H]1C[C@@H](C)C=C2C=C[C@H](C)[C@H](CC[C@@H]3C[C@@H](O)CC(=O)O3)[C@H]21 [simvastatin] | > 0.68 | –
microRNA-195 inhibitor: 5′-GCCAATATTTCTGTGCTGCTA-3′ (SEQ ID NO: 6), Ambion; used to specifically bind to and inhibit endogenous microRNA-195 (listed as DNA, chemistry not given here) [reference compound] | – | 233.7
